Assay results from PubChem BioAssay (NCI).
Where “and” joins values, the source holds several entries; their conditions need not be identical. Identical values can stand only once.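 Growth conditions: 96-well plates. Treatment: test compound, 48 hours, 5 concentrations. Analysis: linear interpolation between bracketing concentrations; unreached endpoints set to highest concentration. Abbreviation: GI50, concentration required for 50% inhibition of growth. TGI: concentration producing complete growth inhibition.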

Assays:
Assay in all cases: NCI tumour cell line growth inhibition, 48 h
CAKI-1 renal = tested on: CAKI-1 renal
HCT-15 colon = tested on: HCT-15 colon
KM20L2 colon = tested on: KM20L2 colon
LOX IMVI melanoma = tested on: LOX IMVI melanoma
M19-MEL melanoma = tested on: M19-MEL melanoma
OVCAR-3 ovarian = tested on: OVCAR-3 ovarian
SK-OV-3 ovarian = tested on: SK-OV-3 ovarian
SN12C renal = tested on: SN12C renal
NCI-H522 lung = tested on: NCI-H522 lung
NCI/ADR-RES ovarian = tested on: NCI/ADR-RES ovarian

| SMILES | TGI (CAKI-1 renal) | TGI (HCT-15 colon) | TGI (KM20L2 colon) | TGI (LOX IMVI melanoma) | TGI (M19-MEL melanoma) | TGI (OVCAR-3 ovarian) | TGI (SK-OV-3 ovarian) | TGI (SN12C renal) | TGI (NCI-H522 lung) | GI50 (CAKI-1 renal) | GI50 (HCT-15 colon) | GI50 (LOX IMVI melanoma) | GI50 (NCI-H522 lung) | GI50 (NCI/ADR-RES ovarian) | TGI (NCI/ADR-RES ovarian) | GI50 (OVCAR-3 ovarian) | GI50 (SK-OV-3 ovarian) | GI50 (SN12C renal) |
| --- | --- | --- | --- | --- | --- | --- | --- | --- | --- | --- | --- | --- | --- | --- | --- | --- | --- | --- |
| COC(=O)C1C(=O)O[C@@H](c2ccc(OC)cc2OC)C1C(=O)OC (stereo partly drawn) | > 100 µM | > 100 µM | > 100 µM | > 100 µM | > 100 µM | > 100 µM | > 100 µM | > 100 µM |  |  |  |  |  |  |  |  |  |  |
| O=C(O)/C(Cl)=C(\Cl)C(=O)Nc1ccccc1 | > 100 µM | > 100 µM | > 100 µM | > 100 µM | > 100 µM | > 100 µM | > 100 µM | > 100 µM |  |  |  |  |  |  |  |  |  |  |
| CC1C(=O)N(C)C2(CO)C(=O)O[C@H](C)C12O (stereo partly drawn) | > 100 µM | > 100 µM |  |  | > 100 µM | > 100 µM | > 100 µM |  |  |  |  |  |  |  |  |  |  |  |
| Cc1ccc(S(=O)(=O)N/N=C(\C(=O)Nc2cccc([N+](=O)[O-])c2)c2nc3ccc([N+](=O)[O-])cc3[nH]c2=O)cc1 | > 100 µM | > 100 µM |  | > 100 µM | > 100 µM | > 100 µM | > 100 µM | > 100 µM | > 100 µM |  |  |  |  |  |  |  |  |  |
| CNC1C(O)CC(OC2C/C=C(\C)C/C(C)=C/C=C/CCC(C)CNC(=O)/C=C/C=C/C2C)OC1C (stereo not drawn) | 1.6 µM | 0.531 µM |  | 0.263 µM | 1.68 µM | 1.78 µM | 3.27 µM | 1.94 µM | 2.81 µM |  |  |  |  |  |  |  |  |  |
| O=C(/C=C\Sc1nccc(C(F)(F)F)n1)c1ccc(Br)cc1 | 35.1 µM | 70.6 µM |  | 27.2 µM |  | 30.2 µM | > 100 µM | 43.1 µM | 33.2 µM | 18000 nM | 20700 nM | 13700 nM | 15000 nM | 20.2 µM | 52.7 µM | 14900 nM | > 100 µM | 18800 nM |
| CCOC(=O)c1cc2ncccc2c2ccccc12 | > 100 µM | > 100 µM |  | > 100 µM |  | > 100 µM | > 100 µM | > 100 µM | > 100 µM |  |  |  |  |  | > 100 µM |  |  |  |
| COC(=O)C#Cc1ccc([N+](=O)[O-])cc1 | 2.74 µM | 1.6 µM |  | 2.64 µM |  | 2.93 µM | 19 µM | 3.22 µM | 3.47 µM |  |  |  |  |  | 21.8 µM |  |  |  |
| CCN(CC)CCOc1cc2c(C(=O)OC)c(C)oc2cc1C(C)=O | 31.2 µM | 22.7 µM |  | 22 µM |  | > 100 µM | 30.2 µM | 6.54 µM | > 100 µM | 14200 nM | 10500 nM | 10200 nM | 13200 nM | 13.6 µM | 26.6 µM | 45100 nM | 14.7 µM | 1640 nM |
| Cc1ccc(S(=O)(=O)n2cc(C(=O)C(=O)Nc3ccncc3)c3ccccc32)cc1 | > 100 µM | > 100 µM |  | > 100 µM |  | 16.7 µM | 71.2 µM | > 100 µM | 12.9 µM | 1820 nM | 555 nM | 1040 nM | 438 nM | 0.406 µM | > 34.1 µM | 765 nM | 19.6 µM | 4790 nM |
| COC(=O)Nc1nc2ccc(Oc3ccc(NC(=O)Nc4cccc(Cl)c4)cc3)cc2[nH]1 | > 21.6 µM | > 25 µM |  | 6.6 µM |  | 2.23 µM | 4.62 µM | 11.7 µM | 4.07 µM | 1740 nM | 815 nM | 1420 nM | 543 nM | 5.17 µM | > 25 µM | 768 nM | 1.03 µM | 2060 nM |
| [N-]=[N+]=CC(=O)OCC(N)C(=O)O (stereo not drawn) | > 100 µM | > 100 µM |  | > 100 µM |  | > 100 µM | > 100 µM | > 100 µM | > 100 µM | 429 nM | 631 nM | 485 nM | 512 nM | 3.2 µM | > 100 µM | 3730 nM | 0.808 µM | 749 nM |
| CC/C(=C(\CC)c1ccc(OCCN(CC)CC)cc1)c1ccc(OCCN(CC)CC)cc1 | 15.7 µM | 11.2 µM |  | 5.5 µM |  | 16.1 µM | 12 µM | 21.3 µM | 4.67 µM | 3170 nM | 1740 nM | 1190 nM | 1830 nM | 4.89 µM | 17.9 µM | 3450 nM | 3.48 µM | 5320 nM |
| O=C(O)c1cccc(CC(Br)C(=O)O)c1 (stereo not drawn) | > 100 µM | > 100 µM |  | > 100 µM |  | > 100 µM | > 100 µM | > 100 µM | > 100 µM |  |  |  |  |  | > 100 µM |  |  |  |
| Nc1nccc(Nc2ccc(S(N)(=O)=O)cc2)n1 | > 100 µM | > 100 µM |  | > 100 µM |  | > 100 µM | > 100 µM | > 100 µM | > 100 µM |  |  |  |  |  | > 100 µM |  |  |  |
| CC12CC3CC(C)(C1)CC(N=[N+]=[N-])(C3)C2 | > 100 µM |  |  | > 100 µM | > 100 µM | > 100 µM | > 100 µM | > 100 µM | > 100 µM |  |  |  |  |  |  |  |  |  |
| Cc1cccc(N=C2c3cc([N+](=O)[O-])ccc3-c3c2cc([N+](=O)[O-])cc3[N+](=O)[O-])c1 | 77.9 µM | 10.7 µM |  | 2.93 µM |  |  | > 100 µM | 4.8 µM | 41.7 µM | 15500 nM | 2800 nM | 1570 nM | 4350 nM | 12.5 µM | > 100 µM | 2950 nM | > 100 µM | 2140 nM |
| CN(CCC(=O)O)S(=O)(=O)c1ccccc1 | > 100 µM | > 100 µM |  | > 100 µM |  | > 100 µM | > 100 µM | > 100 µM | > 100 µM |  |  |  |  |  | > 100 µM |  |  |  |
| Cc1ccc(NC(=O)c2ccnc(N3CCCC3)c2)cc1-c1ccc(C(=O)NCC2CC2)cc1 | > 25 µM | > 25 µM |  | > 25 µM |  | > 25 µM | > 25 µM | > 25 µM | > 25 µM | > 25000 nM | > 25000 nM | > 25000 nM | > 25000 nM | > 25 µM | > 25 µM | > 25000 nM | > 25 µM | > 25000 nM |
| COC(=O)C(=O)C(C(=O)C(=O)Nc1cc([N+](=O)[O-])ccc1[N+](=O)[O-])c1nc2ccc(C(=O)c3ccccc3)cc2[nH]c1=O (stereo not drawn) | > 100 µM | > 100 µM |  | > 100 µM | > 100 µM | > 100 µM | > 100 µM | > 100 µM | 70.6 µM |  |  |  |  |  |  |  |  |  |
| CC(=O)OCC1OC(S[As](C)C)C(OC(C)=O)C1OC(C)=O (stereo not drawn) | 0.453 µM | 1.08 µM |  | 0.991 µM |  | 0.151 µM | 7.71 µM | 1.51 µM | 0.528 µM | 79.1 nM | 256 nM | 257 nM | 139 nM | 0.259 µM | 2.48 µM | 39.1 nM | 1.14 µM | 330 nM |
| O=C1C=CC2(C=C1)CCN=c1c(O)c3c(c(O)c12)=NC=N3 | 27.5 µM and > 100 µM | 29.9 µM and > 100 µM |  | 15.1 µM and > 100 µM |  | 25 µM and > 100 µM | 33.2 µM and > 100 µM | 29.4 µM and > 100 µM | 16.6 µM and > 100 µM |  | 14500 nM and > 100000 nM |  |  | 22.7 µM and > 100 µM | > 100 µM |  | 18.3 µM and > 100 µM | 14500 nM and > 100000 nM |
| COc1cccc2c1c1nc3cc(C)c(C)cc3nc1n2CCN(C)C | 6.34 µM | 11.2 µM |  | 8.7 µM |  |  | 12.2 µM | 11.2 µM | 8.65 µM | 946 nM | 1640 nM | 1040 nM | 2390 nM | 1.22 µM | 13.3 µM | 2220 nM | 2.02 µM | 1660 nM |
| Clc1ccc(CO/N=C(\Cn2ccnc2)c2ccc(Cl)cc2Cl)c(Cl)c1 | 3.39 µM | 3.21 µM |  | 3.21 µM |  | 3.12 µM | 3.18 µM | 2.93 µM | 3.28 µM | 1380 nM | 1570 nM | 1450 nM | 1520 nM | 1.27 µM | 2.9 µM | 1660 nM | 1.8 µM | 1440 nM |
| O=C1/C(=C/C(Cl)=C/c2ccccc2)SC(=S)N1CCc1ccc(O)cc1 | 3.78 µM | 11.2 µM |  | 2.74 µM |  | 4.34 µM | > 100 µM | 4.12 µM | 4.78 µM | 1520 nM | 2050 nM | 1270 nM | 1420 nM | 2.16 µM | > 100 µM | 1910 nM | 5.53 µM | 1510 nM |
| O=C(Cn1ccnc1[N+](=O)[O-])NCC(F)(F)C(F)(F)F | > 100 µM | > 100 µM |  | > 100 µM |  | > 100 µM | > 100 µM | > 100 µM | > 100 µM | > 100000 nM | > 100000 nM | > 100000 nM | > 100000 nM | > 100 µM | > 100 µM | > 100000 nM | > 100 µM | > 100000 nM |
| Nc1nc(N)c(-c2ccc(Cl)cc2)c(CCC(=O)Nc2cccc(C(F)(F)F)c2)n1 | > 100 µM | > 100 µM | > 100 µM | > 100 µM |  | > 100 µM | > 100 µM | > 100 µM | > 100 µM |  |  |  |  |  |  |  |  |  |
| CCNc1nc(N2CC(=O)Nc3cc(OC)ccc32)c2ccccc2n1 | > 100 µM | > 100 µM |  | > 100 µM |  |  | 0.0134 µM | > 100 µM | 0.00783 µM | 2.2 nM | 0.609 nM | 0.693 nM | 0.51 nM | 0.000399 µM | 0.015 µM | 0.352 nM | 0.000483 µM | 1.37 nM |
